Laboratory results: patent publication US12544371B2, “Methods and compositions for treating acute lung injury and acute respiratory distress syndrome” (CalciMedica, Inc., priority 2020, dated 2026)
Where two headings read alike, the source gives them in different places.

Tests used:
[1] = Cardiovascular safety in telemetered cynomolgus monkey; type: in vivo
Text: Compound 1 is a non-limiting example of a composition described herein that inhibits calcium release-activated calcium (CRAC) channels).

[2] = tested on: IL-2 released from human PBMCs; test: Cytokine released from human PBMCs: IL-2; type: cell-based
Text: (§1) CRAC channels may play a proximal role in a calcium-calcineurin pathway leading to cytokine release in immune cells.

[3] = Repeat-dose toxicity study in monkeys; conditions: in vivo, monkey
Method: Hemolysis testing concluded that Compound 1 was compatible with human plasma and non-hemolytic in human blood.
Plasma concentrations of compound rise steadily during the 4-hour infusion, with Tmax achieved at the end of infusion (4 hours). After the end of infusion, there is a rapid and prominent distribution phase followed by a prolonged period of residual drug levels. The terminal elimination phase has not yet been fully characterized as it appears to be much longer than was anticipated based on pre-clinical PK data in mouse, rat, dog and monkey. Plasma concentrations during the terminal phase are approximately 5% of Cmax values and, as indicated above, to date there have been no clinically significant AEs reported during this phase. Plasma exposures, defined by AUC0-24 h, appear to be dose-proportional and reached a maximum of 6710 ng*h/mL in Group 5, which is 4.3-fold below the mean AUC24 h in monkey at the NOAEL (29,000 ng*hr/mL).

[4] = Phase 2 open-label study in acute pancreatitis with SIRS and hypoxemia (Compound 1 Test 201); type: in vivo, human
Method: A Phase 2, open-label, dose-response, multi-center study of Compound 1 was conducted in patients with AP and accompanying SIRS and hypoxemia (Compound 1 Test 201). One patient was randomized having SIRS alone at Screening. The primary objective of the study was to evaluate safety and tolerability; the secondary objective was to evaluate efficacy and the PK profile of Compound 1.
The study had 2 phases; the Initial Phase consisted of 2 concurrently enrolled cohorts and the Second Phase consisted of 2 concurrently enrolled cohorts. In total, it was planned to have 4 Cohorts containing 24 adult male and female patients with AP and accompanying SIRS and hypoxemia. In the Initial Phase, 4 female patients were to be randomized in a 3:1 ratio to receive Compound 1+Supportive Care (SC) or SC alone (Cohort 1). Concurrently, 4 male patients were to be randomized in a 3:1 ratio to receive Compound 1+SC or SC alone (Cohort 2). Doses were to be 1.0 mg/kg on Day 1 and 1.4 mg/kg daily on Days 2, 3 and 4 (low dose regimen). In the Second Phase, 8 female patients were to be randomized in a 3:1 ratio to receive Compound 1+SC or SC alone (Cohort 3). Concurrently, 8 male patients were to be randomized in a 3:1 ratio to receive Compound 1+SC or SC alone (Cohort 4). Planned doses for both Cohorts 3 and 4 were to be 2.08 mg/kg daily on Days 1 and 2 and 1.6 mg/kg daily on Days 3 and 4 (high dose regimen).
The decision to start Cohort 3 in the Second Phase was made after study personnel reviewed the available efficacy, safety and tolerability data from Cohort 1 and discussed this with the Principal Investigator (PI). […] Cohort 3, therefore, received the same dose level and schedule as Cohort 1, […] on Day 1 and 1.4 mg/kg daily on Days 2, 3 and 4. The decision to start Cohort 4 in the Second Phase of the study was made after study personnel reviewed the available efficacy, safety and tolerability data from Cohort 2 and discussed this with the Principal Investigator. Cohort 4, therefore, received the original planned dose level and schedule; 2.08 mg/kg daily on Days 1 and 2 and 1.6 mg/kg daily on Days 3 and 4.
The first infusion of Compound 1 was started within 6 (up to 8) hours of the patient or LAR providing informed consent and was administered as a continuous IV infusion over 4 hours. Subsequent infusions were to be started every 24 hours (±1 hour) from the start of the first infusion.

[5] = tested on: IL-2 release by human PBMCs; test: IL-2 release by human PBMCs, isolated cell assay; type: cell-based; conditions: PBMC, SEM (n), read-out: Compound 1 IC50, IL-2 release by human PBMCs
Text: as §1

## Cc1cccc(F)c1C(=O)Nc1cnc(-c2cc3c(cc2Cl)OC(F)(F)O3)cn1 [Compound 1, N-(5-(6-Chloro-2,2-difluorobenzo[d][1,3]dioxol-5-yl)pyrazin-2-yl)-2-fluoro-6-methylbenzamide]
[1]; 1, 3 and 10 mg/kg, also seen in placebo treated animals
  cardiovascular data at lower doses: transient, non-dose-related, slight-to-moderate increases in systolic/diastolic arterial blood pressures and negative chronotropic effects (mild and non-adverse)
[1]; single telemetered cynomolgus monkey, 25 mg/kg IV
  clinical and cardiovascular effects: Dose-limiting adverse clinical and cardiovascular effects
[2]; Homo sapiens, PBMC, mean of replicates, read-out: Mean IC50, IL-2 released from human PBMCs
  IC50: 59 nM
[2]; Homo sapiens, PBMC, single replicates, read-out: Replicate IC50 values, IL-2 released from human PBMCs
  IC50: 71 nM
[2]; single replicates, read-out: Replicate IC50 values, IL-2 released from human PBMCs
  IC50: 47 nM
[3]; NOAEL 3 mg/kg/day, read-out: mean AUC24 h in monkey at the NOAEL
  AUC(0-t): 29000 ng·h/mL
[3]; repeat-dose, monkeys, read-out: no observable adverse effect level (NOAEL)
  NOAEL: 3 mg/kg/day
[4]; 2a High Dose Regimen + SC, admission 1
  Discharge IL-6 levels, patients with 150 pg/mL ≤ IL-6 < 1000 pg/mL: 1
[4]; 2a High Dose Regimen + SC, admission 2
  Discharge IL-6 levels, patients with IL-6 ≥ 1000 pg/mL: 0
[4]; 2a Low Dose Regimen + SC, admission 0
  Discharge IL-6 levels, patients with IL-6 ≥ 1000 pg/mL: 0
[4]; 2a Low Dose Regimen + SC, admission 4
  Discharge IL-6 levels, patients with 150 pg/mL ≤ IL-6 < 1000 pg/mL: 0
[4]; Tests 201 and 202 pooled, maximum IL-6 ≥150 pg/mL in the first 24 hours
  patients in whom IL-6 levels decreased to below 150 pg/mL: 7 of 8
[4]; first critically ill AP patient
  procalcitonin at discharge: 0.24 ng/mL
[4]; first critically ill AP patient, IL-6 >7296 pg/mL at study entry
  IL-6 at 120 hrs: 66 pg/mL
[4]; high dose regimen+SC
  TEAEs with causality considered Possible (Chromaturia): 1 TEAE
[4]; high dose regimen+SC, 1 of 6
  patients with SAEs: 17%
[4]; high dose regimen+SC, 2 of 6
  patients with Acute Respiratory Distress Syndrome: 33%
  patients with Confusional State: 33%
  patients with Malnutrition: 33%
  patients with severe TEAEs: 33%
[4]; high dose regimen+SC, 5 of 6 patients
  patients with treatment-emergent AEs (TEAEs): 83%
[4]; high dose regimen+SC, 3 TEAEs
  patients with TEAEs leading to discontinuation of the study drug: 2 patients
[4]; high dose regimen+SC, Hypoxic-Ischemic Encephalopathy, causality Unrelated
  deaths during the study: 1 death
[4]; in vivo
  IL-6 levels in patients: marked reduction
  respiratory dysfunction in patients: beneficial effects
[4]; intravenous, 90 days in patients with AP, SIRS plus hypoxemia
  safety in critically ill patients: safe
[4]; low dose or high dose regimen
  changes in vital signs, oxygenation, and laboratory values: no untoward changes
[4]; low dose regimen+SC and high dose regimen+SC
  safety and tolerability: well tolerated
[4]; low dose regimen+SC, 0 of 8
  patients with severe TEAEs: 0%
[4]; low dose regimen+SC, 2 of 8
  patients with Headache: 25%
  patients with Hypokalemia: 25%
  patients with SAEs: 25%
[4]; low dose regimen+SC, 7 of 8 patients
  patients with treatment-emergent AEs (TEAEs): 88%
[4]; phase 2a study patients
  procalcitonin levels versus the standard of care: did not increase
[4]; second critically ill AP patient
  procalcitonin at discharge: 0.30 ng/mL
[4]; second critically ill AP patient, IL-6 1021 pg/mL at study entry
  IL-6 at 120 hrs: 83 pg/mL
[5]
  IC50: 10 ± 0.4 nM
